Among the test systems are A498 renal; EKVX NSCLC; HCT-15 colon; HL-60(TB) leukemia; HOP-62 NSCLC; K-562 leukemia; LOX IMVI melanoma; SF-539 CNS; TK-10 renal; UACC-62 melanoma.
Experiment in all cases: NCI anticancer screen, dose series, 48 h

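Cultured in 96-well plates, cells were exposed to test compound for 48 hours across five concentrations. Abbreviation: GI50, concentration required for 50% inhibition of growth. TGI denotes the concentration required for complete inhibition of growth.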

On to `COc1ccccc1C(O)(c1ccccc1)C(O)(c1ccccc1)c1ccccc1OC` (stereo not given), for which the TGI with A498 renal, in the assay on EKVX NSCLC, in the assay with HCT-15 colon, in the assay on HL-60(TB) leukemia, in the assay with HOP-62 NSCLC and in the assay on K-562 leukemia was greater than 100 µM in each case. The TGI in the assay on LOX IMVI melanoma, in the assay on SF-539 CNS, with TK-10 renal and with UACC-62 melanoma was greater than 100 µM in each case.

As to `C=C1C(C2(C)C(OC(C)=O)CC(=O)OC(C)(COC(C)=O)C2CC(=O)OC)C(OC=O)C(OC(=O)C(O)C(C)CC)C2(C)C(c3ccoc3)CC(=O)C12O` (stereo not given), the TGI in the assay with A498 renal was greater than 29.3 µM; in the assay on EKVX NSCLC, greater than 100 µM; in the assay on HCT-15 colon, greater than 100 µM; in the assay with HL-60(TB) leukemia, 0.414 µM; in the assay with HOP-62 NSCLC, greater than 100 µM; with K-562 leukemia it was greater than 31.6 µM. The TGI is greater than 100 µM in the assay on LOX IMVI melanoma, greater than 31.6 µM with SF-539 CNS, greater than 100 µM in the assay with TK-10 renal and greater than 100 µM with UACC-62 melanoma.

As to `Cc1ccc(Cc2cnc(NC(=O)/C=C/c3cccc(C)c3)s2)cc1`, the GI50 was 0.277 µM with A498 renal; 0.403 µM with EKVX NSCLC; 0.049 µM with HCT-15 colon; 0.0933 µM with HL-60(TB) leukemia; 0.238 µM with HOP-62 NSCLC; 0.0469 µM with K-562 leukemia. The GI50 with LOX IMVI melanoma is 0.124 µM; in the assay on SF-539 CNS, 0.149 µM; with TK-10 renal, 0.919 µM; with UACC-62 melanoma it was 0.0645 µM. For the same molecule, the TGI in the assay with A498 renal is 3.14 µM; in the assay with EKVX NSCLC, greater than 100 µM; in the assay on HCT-15 colon, greater than 96 µM; in the assay with HL-60(TB) leukemia, 0.559 µM; in the assay with HOP-62 NSCLC, 9.3 µM; in the assay with K-562 leukemia, greater than 100 µM. In addition, the TGI in the assay with LOX IMVI melanoma amounted to 7.4 µM; with SF-539 CNS, 0.9 µM; in the assay on TK-10 renal, 6.81 µM; with UACC-62 melanoma it was 25.3 µM.

For `C=C1C(=O)O[C@H]2[C@H]1CC/C(COC(=O)c1cc3ccccc3o1)=C\CC[C@@]1(C)O[C@@H]21`, the GI50 was 12.9 µM with A498 renal; 2.02 µM with EKVX NSCLC; 1.07 µM with HCT-15 colon; 1.22 µM with HL-60(TB) leukemia; 2.48 µM in the assay on HOP-62 NSCLC; 1.15 µM in the assay with K-562 leukemia. Also, the GI50 is 1.42 µM in the assay with LOX IMVI melanoma, 1.45 µM with SF-539 CNS, 3.01 µM in the assay on TK-10 renal and 1.68 µM with UACC-62 melanoma. The TGI in the assay with A498 renal came out at 26 µM; with EKVX NSCLC, 6.12 µM; in the assay on HCT-15 colon it was 2.86 µM; in the assay with HL-60(TB) leukemia, 3.68 µM; with HOP-62 NSCLC, 7.07 µM; in the assay on K-562 leukemia it was 7.43 µM. Also, the TGI with LOX IMVI melanoma amounted to 2.81 µM; in the assay on SF-539 CNS, 2.84 µM; in the assay with TK-10 renal, 9.45 µM; in the assay on UACC-62 melanoma, 3.23 µM.

In the case of `O=C(CCc1nnc2s/c(=C\c3ccc(Cl)c(Cl)c3)c(=O)n12)Nc1ccc(Cl)c(Cl)c1`, the TGI is greater than 100 µM in the assay on A498 renal; greater than 100 µM in the assay on EKVX NSCLC; greater than 100 µM in the assay on HCT-15 colon; 64 µM in the assay on HL-60(TB) leukemia; greater than 100 µM in the assay with HOP-62 NSCLC; greater than 100 µM in the assay on K-562 leukemia. Besides, the TGI in the assay on LOX IMVI melanoma was 39 µM; with SF-539 CNS, greater than 100 µM; in the assay on TK-10 renal, greater than 100 µM; with UACC-62 melanoma, greater than 100 µM.

For `COc1ccc(-c2cc(=O)c3ccccc3o2)cc1N`, the TGI with A498 renal is greater than 100 µM; with EKVX NSCLC, greater than 100 µM; in the assay on HCT-15 colon it was greater than 100 µM; with HL-60(TB) leukemia it was 47.9 µM; in the assay on HOP-62 NSCLC, greater than 100 µM; with K-562 leukemia it was greater than 100 µM. Besides, the TGI with LOX IMVI melanoma, in the assay on SF-539 CNS, in the assay on TK-10 renal and in the assay on UACC-62 melanoma was greater than 100 µM each time.

Consider `CCN(CC)CCCNC(=O)C1COc2cc(-c3cc(=O)c4ccccc4o3)ccc2O1` (stereo not given), for which the TGI in the assay with A498 renal, with EKVX NSCLC, in the assay with HCT-15 colon, in the assay with HL-60(TB) leukemia, with HOP-62 NSCLC and in the assay with K-562 leukemia was greater than 100 µM throughout. Also, the TGI with LOX IMVI melanoma was 48.2 µM; in the assay on SF-539 CNS it was 38.9 µM; in the assay with TK-10 renal, greater than 100 µM; with UACC-62 melanoma, greater than 100 µM.

Regarding `O=c1cc(N2CCN(CCCCCOc3cc(O)c4c(=O)cc(-c5ccccc5)oc4c3)CC2)c2ccccc2o1`, the GI50 was greater than 100 µM in the assay on A498 renal; greater than 100 µM in the assay on EKVX NSCLC; greater than 100 µM in the assay with HCT-15 colon; 17.5 µM with HL-60(TB) leukemia; greater than 100 µM in the assay on HOP-62 NSCLC; 15.4 µM with K-562 leukemia. Further, the GI50 with LOX IMVI melanoma is 51.2 µM; in the assay with SF-539 CNS it was 35.6 µM; with TK-10 renal, greater than 100 µM; in the assay on UACC-62 melanoma it was 36.2 µM. The TGI in the assay with A498 renal, in the assay with EKVX NSCLC, in the assay with HCT-15 colon, with HL-60(TB) leukemia, with HOP-62 NSCLC and in the assay on K-562 leukemia was greater than 100 µM in each case. Also, the TGI with LOX IMVI melanoma, in the assay on SF-539 CNS, with TK-10 renal and in the assay with UACC-62 melanoma was greater than 100 µM in each case.

On to `CCOC(=O)/C(=C\c1ccc(N(CCC#N)CCC#N)cc1)NC(=O)c1cc([N+](=O)[O-])ccc1Cl`, for which the TGI in the assay on A498 renal, with EKVX NSCLC, in the assay on HCT-15 colon, in the assay on HL-60(TB) leukemia, with HOP-62 NSCLC and in the assay with K-562 leukemia was greater than 100 µM throughout. Moreover, the TGI in the assay on LOX IMVI melanoma, in the assay on SF-539 CNS, in the assay with TK-10 renal and in the assay with UACC-62 melanoma was greater than 100 µM in each case.

As for `C=C1C(=O)O[C@H]2[C@H]1CC/C(COC(=O)C(=O)c1cn(C)c3ccc(Cl)cc13)=C\CC[C@@]1(C)O[C@@H]21`, the GI50 with A498 renal is 2.17 µM; with EKVX NSCLC, 1.92 µM; in the assay on HCT-15 colon it was 0.209 µM; in the assay with HL-60(TB) leukemia it was 1.25 µM; in the assay on HOP-62 NSCLC, 1.33 µM; in the assay with K-562 leukemia, 1.65 µM. Moreover, the GI50 with LOX IMVI melanoma is 0.191 µM; in the assay on SF-539 CNS, 1.66 µM; in the assay with TK-10 renal, 1.42 µM; in the assay on UACC-62 melanoma it was 0.356 µM. The TGI was 3.86 µM in the assay on A498 renal; 4.29 µM in the assay on EKVX NSCLC; 0.5 µM in the assay on HCT-15 colon; 4.09 µM in the assay on HL-60(TB) leukemia; 3.02 µM with HOP-62 NSCLC; greater than 100 µM with K-562 leukemia. Also, the TGI in the assay on LOX IMVI melanoma was 0.387 µM; in the assay on SF-539 CNS, 3.36 µM; in the assay with TK-10 renal, 2.98 µM; in the assay with UACC-62 melanoma, 2.08 µM.

On to `CS(=O)(=O)CCNCc1ccc(-c2ccc3ncnc(Nc4ccc(OCc5ccccc5)c(Br)c4)c3c2)o1`, for which the GI50 is 4.35 µM in the assay on A498 renal; 0.526 µM in the assay on EKVX NSCLC; 4.51 µM in the assay on HCT-15 colon; 6.81 µM in the assay with HL-60(TB) leukemia; 11.2 µM in the assay on HOP-62 NSCLC; 7.72 µM in the assay with K-562 leukemia. The GI50 in the assay on LOX IMVI melanoma is 4.36 µM; in the assay with SF-539 CNS, 5.41 µM; with TK-10 renal, 2.02 µM; in the assay with UACC-62 melanoma it was 5.03 µM. For the same molecule, the TGI is 16.3 µM in the assay with A498 renal; greater than 25 µM in the assay on EKVX NSCLC; 14.7 µM in the assay with HCT-15 colon; 15.9 µM with HL-60(TB) leukemia; greater than 25 µM in the assay with HOP-62 NSCLC; greater than 20.6 µM in the assay with K-562 leukemia. The TGI was 8.69 µM in the assay on LOX IMVI melanoma, 13.2 µM with SF-539 CNS, greater than 22 µM in the assay on TK-10 renal and 9.75 µM in the assay with UACC-62 melanoma.

Take `C=C(C#N)C1OCC2OC(C)(C)OC21` (stereo not given): the TGI in the assay on A498 renal was 51.2 µM; in the assay with EKVX NSCLC it was 60 µM; with HCT-15 colon, 35.3 µM; in the assay with HL-60(TB) leukemia it was 43 µM; in the assay with HOP-62 NSCLC it was greater than 100 µM; in the assay with K-562 leukemia, 72 µM. For the same molecule, the TGI with LOX IMVI melanoma was determined as 30.4 µM; in the assay with SF-539 CNS, 30 µM; in the assay on TK-10 renal it was 58.5 µM; in the assay with UACC-62 melanoma, 31.9 µM.

As to `Cc1ccc2c(-c3ccnc(Nc4ccccc4)n3)c(-c3ccc(F)cc3)nn2n1`, the GI50 in the assay on A498 renal is 4.78 µM; in the assay with EKVX NSCLC, 6.53 µM; in the assay on HCT-15 colon, 5.58 µM; with HL-60(TB) leukemia it was 9.56 µM; in the assay with HOP-62 NSCLC, 19.4 µM; in the assay with K-562 leukemia it was 13.5 µM. In addition, the GI50 is 5.92 µM with LOX IMVI melanoma, 6.99 µM in the assay with SF-539 CNS, 1.62 µM with TK-10 renal and 7.82 µM with UACC-62 melanoma. The TGI in the assay on A498 renal is 21.5 µM; in the assay on EKVX NSCLC, greater than 25 µM; in the assay with HCT-15 colon, greater than 25 µM; in the assay on HL-60(TB) leukemia, greater than 25 µM; with HOP-62 NSCLC, greater than 25 µM; with K-562 leukemia, greater than 25 µM. The TGI in the assay with LOX IMVI melanoma is greater than 25 µM; in the assay with SF-539 CNS, greater than 19.3 µM; with TK-10 renal it was 10.8 µM; in the assay with UACC-62 melanoma, greater than 25 µM.
